Measurements taken from ChEMBL document CHEMBL3039007, “Structure-based identification of OATP1B1/3 inhibitors” (Mol Pharmacol, 2013).

Assays:
[1] = biological target: T1, Solute carrier organic anion transporter family member 1B3 (Homo sapiens, UniProt Q9NPD5); conditions: chinese hamster, cho, 10 µM
T1 sequence (Q9NPD5 whole entry): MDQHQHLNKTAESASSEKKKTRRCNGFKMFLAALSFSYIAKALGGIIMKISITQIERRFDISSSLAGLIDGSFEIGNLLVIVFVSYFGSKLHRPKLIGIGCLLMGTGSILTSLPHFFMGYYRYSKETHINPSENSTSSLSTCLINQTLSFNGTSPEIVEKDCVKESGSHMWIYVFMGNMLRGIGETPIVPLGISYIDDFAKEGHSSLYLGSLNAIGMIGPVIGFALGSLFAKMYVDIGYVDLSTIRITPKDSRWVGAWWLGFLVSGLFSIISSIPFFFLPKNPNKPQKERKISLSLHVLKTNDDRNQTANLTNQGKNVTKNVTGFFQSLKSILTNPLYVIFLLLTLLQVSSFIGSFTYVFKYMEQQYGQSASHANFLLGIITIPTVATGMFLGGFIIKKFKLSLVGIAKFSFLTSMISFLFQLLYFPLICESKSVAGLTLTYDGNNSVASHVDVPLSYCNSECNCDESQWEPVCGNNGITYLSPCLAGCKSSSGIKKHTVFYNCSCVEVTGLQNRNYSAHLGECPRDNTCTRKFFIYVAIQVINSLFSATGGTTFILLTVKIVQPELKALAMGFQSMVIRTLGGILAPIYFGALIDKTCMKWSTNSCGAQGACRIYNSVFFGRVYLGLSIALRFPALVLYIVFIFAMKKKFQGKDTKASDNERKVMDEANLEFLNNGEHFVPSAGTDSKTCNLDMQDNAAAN

[2] = biological target: T2, Solute carrier organic anion transporter family member 1B1 (Homo sapiens, UniProt Q9Y6L6); conditions: chinese hamster, cho, 10 µM
T2 sequence (Q9Y6L6 whole entry): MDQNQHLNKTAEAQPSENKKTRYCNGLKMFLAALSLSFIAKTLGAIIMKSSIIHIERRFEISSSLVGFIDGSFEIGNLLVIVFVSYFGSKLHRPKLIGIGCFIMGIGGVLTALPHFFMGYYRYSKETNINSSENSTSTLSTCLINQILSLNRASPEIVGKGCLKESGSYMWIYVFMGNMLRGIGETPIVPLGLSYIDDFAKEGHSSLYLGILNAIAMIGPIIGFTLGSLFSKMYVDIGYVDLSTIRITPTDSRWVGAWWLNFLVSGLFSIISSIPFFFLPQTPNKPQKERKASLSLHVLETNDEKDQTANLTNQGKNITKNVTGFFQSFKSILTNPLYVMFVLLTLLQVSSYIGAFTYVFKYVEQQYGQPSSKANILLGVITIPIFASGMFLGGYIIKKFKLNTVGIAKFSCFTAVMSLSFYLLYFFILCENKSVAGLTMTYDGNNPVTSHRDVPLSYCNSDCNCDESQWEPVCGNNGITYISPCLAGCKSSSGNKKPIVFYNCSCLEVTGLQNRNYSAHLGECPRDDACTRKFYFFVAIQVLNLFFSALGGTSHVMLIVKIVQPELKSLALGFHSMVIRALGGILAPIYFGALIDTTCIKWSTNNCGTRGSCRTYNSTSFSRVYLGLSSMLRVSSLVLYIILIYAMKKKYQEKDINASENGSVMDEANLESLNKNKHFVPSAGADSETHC

Row | SMILES | residual activity [1] [%] | residual activity [2] [%]
1 | COc1ccc2c(c1)O[C@@H]1COc3cc(OC)c(OC)cc3[C@@H]1C2=O [MUNDOSERONE] | 110.7 | 118.1
2 | CC[N+]1(C)CCCC(OC(=O)C(O)(c2ccccc2)c2ccccc2)C1.[Br-] (stereo not drawn) [PIPENZOLATE BROMIDE] | 86.01 | 70.99
3 | COC1=C[C@]23CCCN2CCc2cc4c(cc2[C@@H]3[C@@H]1O)OCO4 [CEPHALOTAXINE] | 77.89 | 77.26
4 | CC(=O)NC1CCSC1=O (stereo not drawn) [CITIOLONE] | 92.74 | 110.6
5 | COc1cc2c(cc1OC)[C@@H]1C(=O)c3ccc(O)c(CC=C(C)C)c3O[C@@H]1CO2 [ROTENONIC ACID] | 99.21 | 53.2
6 | COc1cc2c(cc1OC)[C@@H]1C(=O)c3ccc4oc(C(C)C)cc4c3O[C@@H]1CO2 [ISOROTENONE] | 87.44 | 78.62
7 | Nc1nccs1 [AMINOTHIAZOLE] | 76.59 | 92.13
8 | Oc1cc2c(cc1O)[C@@H]1c3ccc(O)c(O)c3OC[C@]1(O)C2 [HEMATOXYLIN] | 91.69 | 88.87
9 | CN1CCC(=C2c3ccccc3CC(=O)c3sccc32)CC1.O=C(O)/C=C/C(=O)O [KETOTIFEN FUMARATE] | 89.36 | 94.79
10 | COc1cc2c(cc1OC)-c1c(oc3c4c(ccc3c1=O)OC(C(C)C)C4)CO2 (stereo not drawn) [DEHYDRODIHYDROROTENONE] | 95.69 | 89.82
11 | COP(=O)(NC(C)=O)SC (stereo not drawn) [ACEPHATE] | 83.6 | 75.83
12 | O=c1ccc2ccc(O)c(O)c2o1 [DAPHNETIN] | 94.36 | 66.34
13 | COC(=O)CCC(=O)O[C@H]1CC[C@@]2(C)[C@@H](CC[C@@H]3[C@@H]2C(=O)[C@@H](O)[C@]2(C)C4C(C[C@@H]32)O[C@@]2(CCC(C)CO2)[C@H]4C)C1 (stereo partly drawn) | 83.53 | 131.1
14 | O=C(O)c1c2ccccc2cc2ccccc12 [ANTHRACENE-9-CARBOXYLIC ACID] | 87.88 | 95.94
15 | CC(C)(C)NC[C@H](O)COc1nsnc1N1CCOCC1.O=C(O)/C=C\C(=O)O [TIMOLOL MALEATE] | 102.2 | 113.3
16 | NNCCc1ccccc1.O=S(=O)(O)O [PHENELZINE SULFATE] | 110.5 | 91.37
17 | OCC(O)Cc1ccc2c(c1)OCO2 (stereo not drawn) [SAFROLGLYCOL] | 83.74 | 82.94
18 | COC(=O)[C@H](c1ccccc1Cl)N1CCc2sccc2C1.O=S(=O)(O)O [CLOPIDOGREL BISULFATE] | 96.14 | 145.3
19 | CNC(=O)Oc1ccc2c(c1)[C@]1(C)CCN(C)[C@@H]1N2C [PHYSOSTIGMINE] | 80.76 | 78.13
20 | NCCc1c[nH]c2ccccc12 [TRYPTAMINE] | 104.1 | 101
21 | COc1ccc2c(c1)OC[C@@H](Cc1ccc(OC)c(OC)c1)[C@@H]2O [3-DESHYDROXYSAPPANOL TRIMETHYL ETHER] | 104.1 | 100.6
22 | C1CCC(C(CC2CCCCN2)C2CCCCC2)CC1.O=C(O)/C=C\C(=O)O (stereo not drawn) [PERHEXILINE MALEATE] | 92.29 | 68.81
23 | COc1c2ccccc2nc2occc12 [DICTAMNINE] | 118.6 | 151.5
24 | c1ccc2c(c1)sc1ccccc12 [DIBENZOTHIOPHENE] | 93.83 | 114.7
25 | CCN(CCCCOC(=O)c1ccc(OC)c(OC)c1)C(C)Cc1ccc(OC)cc1.Cl (stereo not drawn) [MEBEVERINE HYDROCHLORIDE] | 112 | 89.99

Next, values leading:

Row | residual activity [1] [%] | residual activity [2] [%] | SMILES
26 | 92.29 | 132.9 | Cc1ncc([N+](=O)[O-])n1CC(C)O (stereo not drawn) [SECNIDAZOLE]
27 | 82.4 | 62.45 | O=C(CCBr)N1CCN(C(=O)CCBr)CC1 [PIPOBROMAN]
28 | 109.2 | 116.3 | O=c1[nH]c(=O)n([C@H]2C[C@H](O)[C@@H](CO)O2)cc1F [FLOXURIDINE]
29 | 107 | 96.24 | Cc1occc(=O)c1/C=C/O [2-METHYL-3-HYDROXYETHYLENEPYRAN-4-ONE]
30 | 134.6 | 204.4 | O=c1cc(-c2ccc(O)cc2)oc2cc(O[C@@H]3O[C@H](CO)[C@@H](O)[C@H](O)[C@H]3O)cc(O)c12 [APIGETRIN]
31 | 81.94 | 75.11 | CCN(Cc1ccncc1)C(=O)C(CO)c1ccccc1 (stereo not drawn) [TROPICAMIDE]
32 | 108.8 | 91.66 | CC1(C)S[C@@H]2[C@H](NC(=O)COc3ccccc3)C(=O)N2[C@H]1C(=O)[O-].[K+] [PENICILLIN V POTASSIUM]
33 | 95.93 | 131.1 | NC1(C(=O)O)CCC1 [1-AMINOCYCLOBUTANE CARBOXYLIC ACID]
34 | 104.9 | 90.31 | OC[C@H]1O[C@@H](O[C@@H]2[C@@H](CO)O[C@](O)(CO)[C@H]2O)[C@H](O)[C@@H](O)[C@H]1O [LACTULOSE]
35 | 46.77 | 23.01 | COc1cc(C)c(C(=O)Oc2cc(C)c(C(=O)O)c(O)c2C)c(O)c1C=O [BAEOMYCESIC ACID]
36 | 83.34 | 98.52 | CCC(C)C(=O)OC1[C@@H]2CC3=C4CC(=O)O[C@@H](c5ccoc5)[C@]4(C)CCC3[C@@](C)(C2=O)[C@@H](CC(=O)OC)C1(C)C (stereo partly drawn) [KHAYASIN]
37 | 101.9 | 115.1 | COC1=CC(=O)C=C(OC)C1=O [2,6-DIMETHOXYQUINONE]
38 | 20.52 | 15.89 | CC(C)c1c(O)ccc2c1CC[C@H]1[C@@](C)(CO)CCC[C@]21C [19-HYDROXYTOTAROL]
39 | 70.33 | 99.81 | CC(C)[C@H]1CC[C@H](C(=O)N[C@H](Cc2ccccc2)C(=O)O)CC1 [NATEGLINIDE]
40 | 106.9 | 101.4 | CO[C@H]1[C@H](O)[C@@H](O)[C@H](O)[C@H](O)[C@H]1O [QUEBRACHITOL]
41 | 107.3 | 126.8 | COc1ccc(-c2coc3c(O)c(OC)ccc3c2=O)cc1 [RETUSIN 7-METHYL ETHER]
42 | 95.69 | 83.49 | CCN(CC)CCCC(C)Nc1c2ccc(Cl)cc2nc2ccc(OC)cc12.Cl.Cl.O.O (stereo not drawn) [QUINACRINE HYDROCHLORIDE]
43 | 108.3 | 109.1 | CC1CC[C@]2(OC1)OC1C[C@H]3[C@@H]4CC[C@H]5C[C@@H](O)CC[C@]5(C)C4=CC[C@]3(C)C1[C@@H]2C (stereo partly drawn)
44 | 111.8 | 171.8 | C=C(CC)C(=O)c1ccc(OCC(=O)O)c(Cl)c1Cl [ETHACRYNIC ACID]
45 | 75.29 | 56.92 | CC1(C)C(=O)C=C[C@]2(C)[C@H]3CC[C@@]4(C)[C@H](c5ccoc5)OC(=O)[C@H]5O[C@]54[C@]3(C)C=C[C@@H]12
46 | 45.37 | 24.17 | O=c1c(O)c(-c2ccc(O)cc2O)oc2cc(O)cc(O)c12 [MORIN]
47 | 99.86 | 125.3 | CCCCNC(=O)NS(=O)(=O)c1ccc(C)cc1 [TOLBUTAMIDE]
48 | 85.97 | 82.22 | NS(=O)(=O)c1cc2c(cc1C(F)(F)F)NCNS2(=O)=O [HYDROFLUMETHIAZIDE]
49 | 104.5 | 95.56 | CC(N)CCCC(C)(C)O.Cl (stereo not drawn) [HEPTAMINOL HYDROCHLORIDE]
